In ChEMBL document CHEMBL3885861, “Open TG-GATES”:

Organism: Rattus norvegicus
Assay: Open TG-GATES - Regimen: Single
Format: toxicity, organism-based, Sprague-Dawley
Parameters: regimen Single, gender Male, age 6 weeks
Details: in vivo, po, route gavage; for TG / TP / gamma-GTP / ALT / AST / CRE / Ca / Cl / DBIL / GLC / K / LDH / Na / PL / RALB / TBIL / TC / ALP: tissue Plasma; for APTT / Bas / Eos / Fbg / Hb / Ht / Lym / MCHC / MCV / Mono / PT / Plat / RBC / WBC: tissue Blood; for KIDNEY_L / KIDNEY_R / KIDNEY_TOTAL: tissue Kidney; for LIVER: tissue Liver
[1] = 0 mg/kg, 24 h, dose level Control

## COc1ccc([C@@H]2Sc3ccccc3N(CCN(C)C)C(=O)[C@@H]2OC(C)=O)cc1 [DILTIAZEM]
[1]
  TG: 84.2 mg/dL
  TP: 5.4 g/dL
  gamma-GTP: 1 IU/L
80 mg/kg, 3 h, dose level Low
  TERMINAL_BW: 186.4 g
  APTT: 17.7 s
  Bas: 0.4%
  Eos: 0.2%
  Fbg: 282.2 mg/dL
  Hb: 12.8 g/dL
  Ht: 40%
  Lym: 70.8%
  MCHC: 32.1%
  MCV: 66.5 fL
  Mono: 3.4%
  PT: 14.7 s
  Plat: 124.6 x10_4/uL
  RBC: 601.8 x10_4/ul
  WBC: 115.4 x10_2/uL
  KIDNEY_L: 0.9 g
  KIDNEY_R: 0.8 g
  KIDNEY_TOTAL: 1.7 g
  LIVER: 8.4 g
  ALT: 50.8 IU/L
  AST: 85.6 IU/L
  CRE: 0.2 mg/dL
  Ca: 10.8 mg/dL
  Cl: 106.6 meq/L
  DBIL: 0.014 mg/dL
  GLC: 183.4 mg/dL
  K: 4.5 meq/L
  LDH: 74.8 IU/L
  Na: 142.2 meq/L
  PL: 134.8 mg/dL
  RALB: 2.5 g/dL
  TBIL: 0.032 mg/dL
  TC: 71.8 mg/dL
  TG: 60.2 mg/dL
  TP: 5.1 g/dL
  gamma-GTP: 1.2 IU/L
80 mg/kg, 6 h, dose level Low
  TERMINAL_BW: 182.6 g
  APTT: 17 s
  Bas: 0%
  Eos: 0.8%
  Fbg: 314.8 mg/dL
  Ht: 40.5%
  Lym: 71.2%
  MCHC: 32.4%
  MCV: 67 fL
  Mono: 4.2%
  PT: 14.7 s
  Plat: 131.5 x10_4/uL
  RBC: 606 x10_4/ul
  WBC: 91.6 x10_2/uL
  KIDNEY_L: 0.8 g
  KIDNEY_R: 0.8 g
  KIDNEY_TOTAL: 1.6 g
  LIVER: 7.9 g
  ALT: 42.4 IU/L
  AST: 72.8 IU/L
  CRE: 0.2 mg/dL
  Ca: 11.1 mg/dL
  Cl: 106.8 meq/L
  DBIL: 0.014 mg/dL
  GLC: 176.8 mg/dL
  K: 4.1 meq/L
  LDH: 54 IU/L
  Na: 143.8 meq/L
  PL: 137.4 mg/dL
  RALB: 2.5 g/dL
  TBIL: 0.034 mg/dL
  TC: 79 mg/dL
  TG: 33.4 mg/dL
  TP: 5.3 g/dL
  gamma-GTP: 1 IU/L
80 mg/kg, 9 h, dose level Low
  TERMINAL_BW: 181.8 g
  Bas: 0%
  Eos: 0.8%
  Fbg: 300.8 mg/dL
  Hb: 12.9 g/dL
  Ht: 40.2%
  Lym: 79.4%
  MCHC: 32.1%
  MCV: 66.7 fL
  Mono: 3%
  PT: 15.2 s
  Plat: 116.7 x10_4/uL
  RBC: 603.2 x10_4/ul
  WBC: 69.7 x10_2/uL
  KIDNEY_L: 0.9 g
  KIDNEY_R: 0.9 g
  KIDNEY_TOTAL: 1.7 g
  LIVER: 7.3 g
  ALP: 1382 IU/L
  ALT: 44 IU/L
  AST: 74.8 IU/L
  CRE: 0.1 mg/dL
  Ca: 10.7 mg/dL
  Cl: 105.8 meq/L
  DBIL: 0.016 mg/dL
  GLC: 176.8 mg/dL
  K: 4.1 meq/L
  LDH: 59.6 IU/L
  Na: 142 meq/L
  PL: 129.4 mg/dL
  RALB: 2.5 g/dL
  TBIL: 0.032 mg/dL
  TC: 69 mg/dL
  TG: 55.8 mg/dL
  TP: 5.1 g/dL
  gamma-GTP: 1 IU/L
80 mg/kg, 24 h, dose level Low
  TERMINAL_BW: 195.1 g
  Bas: 0%
  Eos: 1%
  Fbg: 257 mg/dL
  Hb: 13.3 g/dL
  Ht: 40.6%
  Lym: 75%
  MCHC: 32.8%
  MCV: 67 fL
  Mono: 3.2%
  PT: 14.5 s
  Plat: 121.8 x10_4/uL
  RBC: 606 x10_4/ul
  WBC: 83.3 x10_2/uL
  KIDNEY_L: 0.9 g
  KIDNEY_R: 0.9 g
  KIDNEY_TOTAL: 1.7 g
  LIVER: 9.3 g
  ALP: 1732.2 IU/L
  ALT: 49 IU/L
  AST: 77.4 IU/L
  CRE: 0.2 mg/dL
  Ca: 11.2 mg/dL
  Cl: 106.8 meq/L
  DBIL: 0.016 mg/dL
  GLC: 187.4 mg/dL
  K: 4.3 meq/L
  LDH: 82 IU/L
  Na: 144.2 meq/L
  PL: 146.4 mg/dL
  RALB: 2.6 g/dL
  TBIL: 0.032 mg/dL
